pEC50: −log10 of the molar value. Like-named read-outs stand apart in the source and are kept apart here.
How the values were obtained:
Assay type in all cases: cell-based
TLR3 = biological target: T1, TLR3 (Homo sapiens, UniProt O15455); assay: HEK293 cells transfected with human TLR3, NF-κB driven reporter; settings: concentration up to 25 uM
T1 construct: expressed in transfected cells; host or cells: HEK293
T1 sequence (O15455 24-904): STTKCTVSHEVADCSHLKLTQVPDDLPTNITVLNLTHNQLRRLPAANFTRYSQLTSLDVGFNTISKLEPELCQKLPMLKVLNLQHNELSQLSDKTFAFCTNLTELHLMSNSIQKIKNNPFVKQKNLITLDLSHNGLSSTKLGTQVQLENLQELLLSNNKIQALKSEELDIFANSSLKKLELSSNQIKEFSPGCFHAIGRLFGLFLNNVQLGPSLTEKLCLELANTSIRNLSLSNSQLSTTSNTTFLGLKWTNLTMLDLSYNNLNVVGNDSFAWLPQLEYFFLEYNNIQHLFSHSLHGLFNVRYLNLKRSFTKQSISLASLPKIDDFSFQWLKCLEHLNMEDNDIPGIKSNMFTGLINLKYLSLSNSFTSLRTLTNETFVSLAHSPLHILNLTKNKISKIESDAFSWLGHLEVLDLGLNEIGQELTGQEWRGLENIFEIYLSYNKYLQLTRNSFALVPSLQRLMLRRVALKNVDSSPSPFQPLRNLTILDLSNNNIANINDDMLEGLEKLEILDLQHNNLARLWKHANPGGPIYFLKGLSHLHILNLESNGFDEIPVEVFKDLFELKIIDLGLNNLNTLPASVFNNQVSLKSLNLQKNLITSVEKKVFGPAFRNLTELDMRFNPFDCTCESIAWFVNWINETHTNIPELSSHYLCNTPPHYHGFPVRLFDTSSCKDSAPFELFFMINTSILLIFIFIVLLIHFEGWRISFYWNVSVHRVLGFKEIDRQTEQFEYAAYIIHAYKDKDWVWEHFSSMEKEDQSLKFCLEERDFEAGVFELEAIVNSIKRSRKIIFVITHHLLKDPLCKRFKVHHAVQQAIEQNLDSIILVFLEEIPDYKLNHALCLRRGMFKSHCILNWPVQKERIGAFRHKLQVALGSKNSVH
Protocol: (§1) FIG. 8 is two graphs depicting the potency and selectivity of VTX-378 for TLR8. The half-maximal effective concentration (EC50) for VTX-378 activation of TLR8 and TLR7 was assessed in peripheral blood mononuclear cells (PBMCs) by the amount of secreted TNFα (A) and by the activity of NF-κB (B) from 15 healthy donors and also in HEK293 cells transfected with various human TLRs.
(§2) Preclinical studies were performed with VTX-378, the active pharmaceutical ingredient in VTX-1463. The specificity of VTX-378 for human TLR8 relative to other TLRs was assessed in transfected Human Embryonic Kidney 293 (HEK293) cells engineered to express individual TLRs (2-9) via transfection, and assessed using an NF-κB driven reporter system. […] The pharmacologic effects of VTX-378 were characterized in vitro using isolated human peripheral blood mononuclear cells (PBMCs).

TLR4 = biological target: T2, TLR4 (Homo sapiens, UniProt O00206+Q9Y6Y9); assay: HEK293 cells transfected with human TLR4, NF-κB driven reporter
T2 construct: expressed in transfected cells; host or cells: HEK293
T2 sequence (O00206 24-839): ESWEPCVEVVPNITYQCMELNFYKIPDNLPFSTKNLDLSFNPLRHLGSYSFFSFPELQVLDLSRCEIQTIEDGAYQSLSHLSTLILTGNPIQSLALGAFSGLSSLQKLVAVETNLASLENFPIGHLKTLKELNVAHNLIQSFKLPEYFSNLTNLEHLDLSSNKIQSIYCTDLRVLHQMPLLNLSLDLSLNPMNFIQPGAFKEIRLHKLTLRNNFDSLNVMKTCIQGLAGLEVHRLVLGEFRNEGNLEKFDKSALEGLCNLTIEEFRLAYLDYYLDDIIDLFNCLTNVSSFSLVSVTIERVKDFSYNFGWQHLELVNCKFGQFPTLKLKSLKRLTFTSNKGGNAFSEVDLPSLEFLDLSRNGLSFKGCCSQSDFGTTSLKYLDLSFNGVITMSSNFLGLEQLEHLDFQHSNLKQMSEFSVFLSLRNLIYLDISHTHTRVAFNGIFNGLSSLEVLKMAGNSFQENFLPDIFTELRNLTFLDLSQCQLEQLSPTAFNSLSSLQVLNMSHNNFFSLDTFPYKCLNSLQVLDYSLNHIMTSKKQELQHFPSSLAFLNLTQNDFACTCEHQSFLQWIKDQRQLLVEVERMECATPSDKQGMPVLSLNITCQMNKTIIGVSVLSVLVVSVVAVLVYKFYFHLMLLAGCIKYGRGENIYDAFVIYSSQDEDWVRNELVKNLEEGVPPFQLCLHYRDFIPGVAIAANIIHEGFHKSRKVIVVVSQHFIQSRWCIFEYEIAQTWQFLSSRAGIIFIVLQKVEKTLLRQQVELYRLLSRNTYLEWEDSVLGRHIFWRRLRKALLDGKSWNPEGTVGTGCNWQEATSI
T2 sequence (Q9Y6Y9 17-160 limits assumed): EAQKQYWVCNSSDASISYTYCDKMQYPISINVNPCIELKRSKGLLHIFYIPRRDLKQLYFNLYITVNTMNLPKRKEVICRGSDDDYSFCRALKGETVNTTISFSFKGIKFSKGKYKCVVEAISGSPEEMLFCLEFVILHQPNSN
Protocol: as §1, §2

[1] = system: human peripheral blood mononuclear cells (PBMCs); assay: Cytokine production in isolated human PBMCs; settings: for pEC50: Homo sapiens, PBMC
Protocol: as §2

activity on TLR3 (TLR3): no detectable activity
activity on TLR4 (TLR4): minimal to no activity
Structure (SMILES): CCCN(CCC)C(=O)C1=Cc2ccc(-c3ccc(C(=O)N4CCCC4)cc3)cc2N=C(N)C1 [VTX-378]
pEC50 ([1]; analyte IL-10, read-out: EC50, IL-10 production): 6.92
pEC50 ([1]; analyte IL-12p40, read-out: EC50, IL-12p40 production): 6.64
pEC50 ([1]; analyte IL-12p70, read-out: EC50, IL-12p70 production): 6.66
Mean Mediator Level ± SEM, IL-10 ([1]; VTX-378 1.6 uM): 72 ± 29 pg/mL
Mean Mediator Level ± SEM, IL-12p70 ([1]; VTX-378 1.6 uM): 38 ± 10 pg/mL
Mean Mediator Level ± SEM, IL-12p40 ([1]; VTX-378 1.6 uM, *p < 0.05 to Control): 140 ± 32* pg/mL
production of Th-1 cytokines and chemokines including IL-12, IFN, MCP-1 and MIP-1β ([1]; incubation with isolated human PBMCs): stimulated PBMCs to produce
